# Laboratory results published in the NIST ThermoML archive (doi:10.1016/j.fluid.2008.11.013).
# ± gives the expanded uncertainty stated by the source.
# Key:
# [1] = activity coefficient (dimensionless); of the first substance listed, at infinite dilution; xn = mol fraction of the nth substance listed; details: Liquid, Chromatography, x1 = 0
# [2] = excess molar enthalpy (molar enthalpy of mixing); xn = mol fraction of the nth substance listed; details: Liquid, Flow calorimetry
compound,measurement,setting,value
C=CCCCCC [1-heptene] + CCCCCC[N+]1(C)CCCC1.O=S(=O)([N-]S(=O)(=O)C(F)(F)F)C(F)(F)F,activity coefficient,[1]; 303.14 K,6.5 ± 0.3
same,activity coefficient,[1]; 313.16 K,6.31 ± 0.29
same,activity coefficient,[1]; 323.37 K,6.11 ± 0.28
same,activity coefficient,[1]; 333.16 K,6 ± 0.27
CCCCCCCC [octane] + CCCCCC[N+]1(C)CCCC1.O=S(=O)([N-]S(=O)(=O)C(F)(F)F)C(F)(F)F,activity coefficient,[1]; 303.16 K,15.8 ± 0.73
same,activity coefficient,[1]; 313.16 K,14.7 ± 0.68
same,activity coefficient,[1]; 323.15 K,13.9 ± 0.64
same,activity coefficient,[1]; 333.12 K,13.3 ± 0.61
C=CCCCCCC [oct-1-ene] + CCCCCCCC[N+]1(C)CCCC1.O=S(=O)([N-]S(=O)(=O)C(F)(F)F)C(F)(F)F,activity coefficient,[1]; 313.11 K,5.53 ± 0.25
same,activity coefficient,[1]; 323.14 K,5.4 ± 0.25
same,activity coefficient,[1]; 333.17 K,5.27 ± 0.24
same,activity coefficient,[1]; 343.21 K,5.21 ± 0.24
C=CCCC [1-pentene] + CCCCCC[N+]1(C)CCCC1.O=S(=O)([N-]S(=O)(=O)C(F)(F)F)C(F)(F)F,activity coefficient,[1]; 303.16 K,3.4 ± 0.15
same,activity coefficient,[1]; 313.17 K,3.37 ± 0.15
same,activity coefficient,[1]; 323.15 K,3.33 ± 0.15
same,activity coefficient,[1]; 333.15 K,3.31 ± 0.15
CCCCCC[N+]1(C)CCCC1.O=S(=O)([N-]S(=O)(=O)C(F)(F)F)C(F)(F)F + CCCCC,excess molar enthalpy,"[2]; 363.15 K, 2135 kPa, x2 = 0.0699",0.265 ± 0.00574 kcal/mol
same,excess molar enthalpy,"[2]; 363.15 K, 2135 kPa, x2 = 0.1337",0.052 ± 0.00117 kcal/mol
same,excess molar enthalpy,"[2]; 363.15 K, 2135 kPa, x2 = 0.1921",0.0702 ± 0.00155 kcal/mol
same,excess molar enthalpy,"[2]; 363.15 K, 2135 kPa, x2 = 0.2952",0.096 ± 0.0021 kcal/mol
same,excess molar enthalpy,"[2]; 363.15 K, 2135 kPa, x2 = 0.341",0.105 ± 0.00229 kcal/mol
same,excess molar enthalpy,"[2]; 363.15 K, 2135 kPa, x2 = 0.4229",0.0964 ± 0.0021 kcal/mol
same,excess molar enthalpy,"[2]; 363.15 K, 2135 kPa, x2 = 0.4942",0.0849 ± 0.00186 kcal/mol
same,excess molar enthalpy,"[2]; 363.15 K, 2135 kPa, x2 = 0.5568",0.0741 ± 0.00165 kcal/mol
same,excess molar enthalpy,"[2]; 363.15 K, 2135 kPa, x2 = 0.6615",0.056 ± 0.00124 kcal/mol
same,excess molar enthalpy,"[2]; 363.15 K, 2135 kPa, x2 = 0.7457",0.0418 ± 0.000956 kcal/mol
same,excess molar enthalpy,"[2]; 363.15 K, 2135 kPa, x2 = 0.8147",0.031 ± 0.000741 kcal/mol
same,excess molar enthalpy,"[2]; 363.15 K, 2135 kPa, x2 = 0.8979",0.0187 ± 0.000478 kcal/mol
same,excess molar enthalpy,"[2]; 363.15 K, 2135 kPa, x2 = 0.9635",0.00796 ± 0.000287 kcal/mol
C=CCCCCC [1-heptene] + CCCCCCCC[N+]1(C)CCCC1.O=S(=O)([N-]S(=O)(=O)C(F)(F)F)C(F)(F)F,activity coefficient,[1]; 313.11 K,4.37 ± 0.2
same,activity coefficient,[1]; 323.14 K,4.22 ± 0.19
same,activity coefficient,[1]; 333.17 K,4.1 ± 0.19
same,activity coefficient,[1]; 343.21 K,4.02 ± 0.18
C=CCCC [1-pentene] + CCCCCCCC[N+]1(C)CCCC1.O=S(=O)([N-]S(=O)(=O)C(F)(F)F)C(F)(F)F,activity coefficient,[1]; 303.14 K,2.5 ± 0.11
same,activity coefficient,[1]; 313.13 K,2.43 ± 0.11
same,activity coefficient,[1]; 323.11 K,2.33 ± 0.11
same,activity coefficient,[1]; 343.11 K,2.25 ± 0.1
C=CCCCC [hex-1-ene] + CCCCCC[N+]1(C)CCCC1.O=S(=O)([N-]S(=O)(=O)C(F)(F)F)C(F)(F)F,activity coefficient,[1]; 303.16 K,4.77 ± 0.22
same,activity coefficient,[1]; 313.17 K,4.63 ± 0.21
same,activity coefficient,[1]; 323.15 K,4.55 ± 0.21
same,activity coefficient,[1]; 333.15 K,4.45 ± 0.2
CCCCCCCC [octane] + CCCCCCCC[N+]1(C)CCCC1.O=S(=O)([N-]S(=O)(=O)C(F)(F)F)C(F)(F)F,activity coefficient,[1]; 303.1 K,8.78 ± 0.4
same,activity coefficient,[1]; 313.15 K,8.55 ± 0.39
same,activity coefficient,[1]; 323.09 K,8.39 ± 0.38
same,activity coefficient,[1]; 333.13 K,8.22 ± 0.38
CCCCCCCCC [nonane] + CCCCCC[N+]1(C)CCCC1.O=S(=O)([N-]S(=O)(=O)C(F)(F)F)C(F)(F)F,activity coefficient,[1]; 303.13 K,21.4 ± 0.99
same,activity coefficient,[1]; 313.17 K,19.9 ± 0.92
same,activity coefficient,[1]; 323.16 K,18.8 ± 0.87
same,activity coefficient,[1]; 333.16 K,18.1 ± 0.84
same,activity coefficient,[1]; 343.13 K,17.1 ± 0.79
CCCC[N+]1(C)CCCC1.O=S(=O)([N-]S(=O)(=O)C(F)(F)F)C(F)(F)F + C=CCCCC,excess molar enthalpy,"[2]; 363.15 K, 2239 kPa, x2 = 0.0587",0.0332 ± 0.000789 kcal/mol
same,excess molar enthalpy,"[2]; 363.15 K, 2239 kPa, x2 = 0.1135",0.064 ± 0.00143 kcal/mol
same,excess molar enthalpy,"[2]; 363.15 K, 2239 kPa, x2 = 0.1647",0.0835 ± 0.00184 kcal/mol
same,excess molar enthalpy,"[2]; 363.15 K, 2239 kPa, x2 = 0.2579",0.104 ± 0.00227 kcal/mol
same,excess molar enthalpy,"[2]; 363.15 K, 2239 kPa, x2 = 0.3781",0.11 ± 0.00239 kcal/mol
same,excess molar enthalpy,"[2]; 363.15 K, 2239 kPa, x2 = 0.4477",0.0987 ± 0.00215 kcal/mol
same,excess molar enthalpy,"[2]; 363.15 K, 2239 kPa, x2 = 0.5104",0.0864 ± 0.00189 kcal/mol
same,excess molar enthalpy,"[2]; 363.15 K, 2239 kPa, x2 = 0.6185",0.0666 ± 0.00148 kcal/mol
same,excess molar enthalpy,"[2]; 363.15 K, 2239 kPa, x2 = 0.7086",0.0533 ± 0.0012 kcal/mol
same,excess molar enthalpy,"[2]; 363.15 K, 2239 kPa, x2 = 0.7849",0.0399 ± 0.000908 kcal/mol
same,excess molar enthalpy,"[2]; 363.15 K, 2239 kPa, x2 = 0.8795",0.0203 ± 0.000502 kcal/mol
C=CCCCCCC [oct-1-ene] + CCCCCC[N+]1(C)CCCC1.O=S(=O)([N-]S(=O)(=O)C(F)(F)F)C(F)(F)F,activity coefficient,[1]; 303.14 K,8.93 ± 0.41
same,activity coefficient,[1]; 313.16 K,8.61 ± 0.4
same,activity coefficient,[1]; 323.37 K,8.39 ± 0.38
same,activity coefficient,[1]; 333.16 K,8.2 ± 0.38
CCCCCCCCCC [decane] + CCCCCC[N+]1(C)CCCC1.O=S(=O)([N-]S(=O)(=O)C(F)(F)F)C(F)(F)F,activity coefficient,[1]; 303.13 K,28.1 ± 1.3
same,activity coefficient,[1]; 313.17 K,27 ± 1.2
same,activity coefficient,[1]; 323.16 K,25.1 ± 1.2
same,activity coefficient,[1]; 333.16 K,24.3 ± 1.1
same,activity coefficient,[1]; 343.13 K,23 ± 1.1
CCCCCC [hexane] + CCCCCC[N+]1(C)CCCC1.O=S(=O)([N-]S(=O)(=O)C(F)(F)F)C(F)(F)F,activity coefficient,[1]; 303.15 K,8.4 ± 0.39
same,activity coefficient,[1]; 313.19 K,7.85 ± 0.36
same,activity coefficient,[1]; 323.16 K,7.21 ± 0.33
same,activity coefficient,[1]; 333.14 K,6.57 ± 0.3
CCCCCCC [heptane] + CCCCCC[N+]1(C)CCCC1.O=S(=O)([N-]S(=O)(=O)C(F)(F)F)C(F)(F)F,activity coefficient,[1]; 303.16 K,11.4 ± 0.52
same,activity coefficient,[1]; 313.16 K,10.8 ± 0.49
same,activity coefficient,[1]; 323.15 K,10.3 ± 0.47
same,activity coefficient,[1]; 333.12 K,9.89 ± 0.45
C=CCCCC [hex-1-ene] + CCCCCCCC[N+]1(C)CCCC1.O=S(=O)([N-]S(=O)(=O)C(F)(F)F)C(F)(F)F,activity coefficient,[1]; 303.14 K,3.11 ± 0.14
same,activity coefficient,[1]; 313.13 K,3.29 ± 0.15
same,activity coefficient,[1]; 323.11 K,3.22 ± 0.15
same,activity coefficient,[1]; 343.11 K,3.15 ± 0.14
CCCCCC [hexane] + CCCCCCCC[N+]1(C)CCCC1.O=S(=O)([N-]S(=O)(=O)C(F)(F)F)C(F)(F)F,activity coefficient,[1]; 303.16 K,5.24 ± 0.24
same,activity coefficient,[1]; 313.13 K,5.05 ± 0.23
same,activity coefficient,[1]; 323.17 K,4.9 ± 0.22
same,activity coefficient,[1]; 333.19 K,4.8 ± 0.22
CCCCCCC [heptane] + CCCCCCCC[N+]1(C)CCCC1.O=S(=O)([N-]S(=O)(=O)C(F)(F)F)C(F)(F)F,activity coefficient,[1]; 303.1 K,6.9 ± 0.32
same,activity coefficient,[1]; 313.15 K,6.73 ± 0.31
same,activity coefficient,[1]; 323.09 K,6.54 ± 0.3
same,activity coefficient,[1]; 333.13 K,6.36 ± 0.29
CCCCC [pentane] + CCCCCC[N+]1(C)CCCC1.O=S(=O)([N-]S(=O)(=O)C(F)(F)F)C(F)(F)F,activity coefficient,[1]; 303.15 K,5.66 ± 0.26
same,activity coefficient,[1]; 313.19 K,5.31 ± 0.24
same,activity coefficient,[1]; 323.16 K,4.8 ± 0.22
same,activity coefficient,[1]; 333.14 K,4.51 ± 0.21
C=CCCCCCCCC [1-decene] + CCCCCC[N+]1(C)CCCC1.O=S(=O)([N-]S(=O)(=O)C(F)(F)F)C(F)(F)F,activity coefficient,[1]; 303.16 K,18.8 ± 0.87
same,activity coefficient,[1]; 313.15 K,18 ± 0.83
same,activity coefficient,[1]; 323.15 K,17.3 ± 0.8
same,activity coefficient,[1]; 333.16 K,16.9 ± 0.78
CCCCCC[N+]1(C)CCCC1.O=S(=O)([N-]S(=O)(=O)C(F)(F)F)C(F)(F)F + CCCCCC,excess molar enthalpy,"[2]; 363.15 K, 1720 kPa, x2 = 0.067",0.0295 ± 0.000717 kcal/mol
same,excess molar enthalpy,"[2]; 363.15 K, 1720 kPa, x2 = 0.1285",0.0574 ± 0.00129 kcal/mol
same,excess molar enthalpy,"[2]; 363.15 K, 1720 kPa, x2 = 0.1852",0.0807 ± 0.00177 kcal/mol
same,excess molar enthalpy,"[2]; 363.15 K, 1720 kPa, x2 = 0.2375",0.1 ± 0.0022 kcal/mol
same,excess molar enthalpy,"[2]; 363.15 K, 1720 kPa, x2 = 0.2859",0.114 ± 0.00239 kcal/mol
same,excess molar enthalpy,"[2]; 363.15 K, 1720 kPa, x2 = 0.3309",0.116 ± 0.00263 kcal/mol
same,excess molar enthalpy,"[2]; 363.15 K, 1720 kPa, x2 = 0.483",0.0924 ± 0.00203 kcal/mol
same,excess molar enthalpy,"[2]; 363.15 K, 1720 kPa, x2 = 0.6514",0.0629 ± 0.00141 kcal/mol
C=CCCCCC [1-heptene] + CCCC[N+]1(C)CCCC1.O=S(=O)([N-]S(=O)(=O)C(F)(F)F)C(F)(F)F,excess molar enthalpy,"[2]; 413.15 K, 2239 kPa, x1 = 0.0525",0.0322 ± 0.000765 kcal/mol
same,excess molar enthalpy,"[2]; 413.15 K, 2239 kPa, x1 = 0.1022",0.0621 ± 0.00139 kcal/mol
same,excess molar enthalpy,"[2]; 413.15 K, 2239 kPa, x1 = 0.1492",0.0898 ± 0.00196 kcal/mol
same,excess molar enthalpy,"[2]; 413.15 K, 2239 kPa, x1 = 0.2762",0.113 ± 0.00239 kcal/mol
same,excess molar enthalpy,"[2]; 413.15 K, 2239 kPa, x1 = 0.3509",0.1 ± 0.00217 kcal/mol
same,excess molar enthalpy,"[2]; 413.15 K, 2239 kPa, x1 = 0.4189",0.0913 ± 0.00201 kcal/mol
same,excess molar enthalpy,"[2]; 413.15 K, 2239 kPa, x1 = 0.481",0.0807 ± 0.00177 kcal/mol
same,excess molar enthalpy,"[2]; 413.15 K, 2239 kPa, x1 = 0.5904",0.0622 ± 0.00139 kcal/mol
same,excess molar enthalpy,"[2]; 413.15 K, 2239 kPa, x1 = 0.6838",0.0501 ± 0.00112 kcal/mol
same,excess molar enthalpy,"[2]; 413.15 K, 2239 kPa, x1 = 0.7643",0.035 ± 0.000813 kcal/mol
same,excess molar enthalpy,"[2]; 413.15 K, 2239 kPa, x1 = 0.8664",0.0204 ± 0.000526 kcal/mol
same,excess molar enthalpy,"[2]; 413.15 K, 2239 kPa, x1 = 0.9511",0.00911 ± 0.000287 kcal/mol
